The record followed here is PubChem BioAssay (NCI).

Among the test systems are A498 renal; HOP-62 NSCLC; MALME-3M melanoma; OVCAR-4 ovarian; SK-MEL-2 melanoma; SK-MEL-28 melanoma; SN12C renal; SNB-19 CNS; CAKI-1 renal.
Assay in all cases: NCI anticancer screen, dose series, 48 h

Each structure is given as a SMILES string.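 Dose response: 5 concentrations. Exposure: 48 h. Format: 96-well plates. Endpoint: linear interpolation; highest concentration if not reached. GI50 marks 50% less growth. TGI is the concentration that stops growth completely.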

With `CCCCCCCCCCCCCC(=O)CSCCNC(=O)CCNC(=O)[C@@H](O)C(C)(C)COP(=O)(O)OP(=O)(O)OCC1OC(n2cnc3c(N)ncnc32)C(O)C1OP(=O)(O)O` (some centres not stated), the TGI turned out to be 35.5 µM in the test with A498 renal; 32.6 µM in the test with HOP-62 NSCLC; 34.6 µM in the test with MALME-3M melanoma; 22.3 µM in the test with OVCAR-4 ovarian; 33.5 µM in the test with SK-MEL-2 melanoma; 34.3 µM in the test with SK-MEL-28 melanoma. In addition, the TGI in the test with SN12C renal turned out to be 34.5 µM; with SNB-19 CNS, 35.2 µM.
Regarding `CCOc1ccc(O)cc1[P+](c1ccccc1)(c1ccccc1)c1ccccc1`, the TGI with A498 renal came out at 29.5 µM; in the test on CAKI-1 renal, 23.4 µM; in the test on HOP-62 NSCLC, 28.9 µM; in the test with MALME-3M melanoma it was 20.1 µM; with OVCAR-4 ovarian, 19.4 µM; in the test with SK-MEL-28 melanoma, 22.6 µM. The figures for the TGI in the test with SN12C renal and with SNB-19 CNS were 13.7 µM and 24.5 µM, respectively.
As for `CN(/N=C/c1cccc2cccnc12)c1c([N+](=O)[O-])cc([N+](=O)[O-])cc1[N+](=O)[O-]`, the TGI in the test with A498 renal, in the test with CAKI-1 renal, in the test with HOP-62 NSCLC, in the test with MALME-3M melanoma, in the test on OVCAR-4 ovarian and with SK-MEL-2 melanoma was above 100 µM in each case. For the same compound, the TGI in the test on SK-MEL-28 melanoma, with SN12C renal and in the test on SNB-19 CNS was above 100 µM in each case.
For `CCOC(=O)/C(=C/c1ccc(N(CCC#N)CCC#N)cc1C)NC(=O)/C=C/c1ccccc1`, the TGI in the test on A498 renal, with CAKI-1 renal, in the test on HOP-62 NSCLC, with MALME-3M melanoma, with SK-MEL-2 melanoma and with SK-MEL-28 melanoma was above 100 µM each time. For the same compound, the TGI with SN12C renal and with SNB-19 CNS was above 100 µM each time.
Take `Cc1cc(=O)[nH]c(CNC(=O)c2cccc(C(=O)NCc3cc(=O)[nH]c(C)n3)c2)n1`: the TGI in the test with A498 renal, with HOP-62 NSCLC, with MALME-3M melanoma, in the test with OVCAR-4 ovarian, in the test on SK-MEL-2 melanoma and in the test on SK-MEL-28 melanoma was above 100 µM throughout. The TGI in the test on SN12C renal and in the test with SNB-19 CNS was above 100 µM throughout.
With `O=C(CCc1nnc2s/c(=C\c3ccccc3Cl)c(=O)n12)Nc1cc(Cl)ccc1Cl`, the TGI with CAKI-1 renal, with HOP-62 NSCLC, in the test with MALME-3M melanoma, with OVCAR-4 ovarian, in the test on SK-MEL-2 melanoma and in the test on SK-MEL-28 melanoma was above 100 µM each time. Besides, the TGI in the test on SN12C renal and in the test on SNB-19 CNS was above 100 µM each time.
For the compound `COC1OC(C)C2OC(C)(C)OC2C1OC(C)=O` (configuration not stated), the TGI in the test with A498 renal, in the test on CAKI-1 renal, in the test with HOP-62 NSCLC, with MALME-3M melanoma, in the test on OVCAR-4 ovarian and with SK-MEL-28 melanoma was above 100 µM throughout. For the same compound, the TGI in the test on SN12C renal and in the test on SNB-19 CNS was above 100 µM in each case.
Turning to `CC(=O)NNc1nc(C)c(C(=O)NNC(=O)C(=O)Nc2ccc([N+](=O)[O-])cc2C#N)s1`, the TGI in the test on A498 renal, with HOP-62 NSCLC, in the test on MALME-3M melanoma, in the test on OVCAR-4 ovarian, in the test on SK-MEL-2 melanoma and in the test on SK-MEL-28 melanoma was above 100 µM each time. The TGI in the test on SN12C renal and with SNB-19 CNS was above 100 µM throughout.
Turning to `CC1NC(=O)C2=C1C(N)=NC(=O)C2` (configuration not stated), the TGI in the test on CAKI-1 renal, in the test with MALME-3M melanoma, in the test on OVCAR-4 ovarian, in the test on SK-MEL-2 melanoma, in the test with SK-MEL-28 melanoma and with SN12C renal was above 100 µM in each case. The compound also had a TGI in the test on SNB-19 CNS above 100 µM.
As for `COc1ccc(Cn2cc3c(c2-c2ccccc2)CCc2cnoc2-3)cc1N`, the GI50 is 63.8 nM in the test on A498 renal; 116 nM in the test with CAKI-1 renal; 433 nM with HOP-62 NSCLC; 898 nM with OVCAR-4 ovarian; 273 nM in the test on SK-MEL-2 melanoma; 247 nM with SK-MEL-28 melanoma. In addition, the GI50 in the test with SN12C renal was 694 nM; in the test with SNB-19 CNS it was 531 nM. Moreover, the TGI in the test with A498 renal is 0.64 µM; in the test with CAKI-1 renal it was above 100 µM; in the test with HOP-62 NSCLC, above 100 µM; with OVCAR-4 ovarian, above 100 µM; in the test with SK-MEL-2 melanoma, above 100 µM; in the test on SK-MEL-28 melanoma, above 100 µM. For the same compound, the TGI in the test on SN12C renal and in the test on SNB-19 CNS was above 100 µM each time.
Regarding `O=C1c2ccccc2C(=O)c2sc(Nc3ccccc3Cl)nc21`, the TGI with A498 renal came out at 32.2 µM; in the test with CAKI-1 renal, 18.4 µM; with HOP-62 NSCLC it was 33.3 µM; in the test on MALME-3M melanoma, 28 µM; in the test with OVCAR-4 ovarian, 22.8 µM; with SK-MEL-2 melanoma, 34.5 µM. Moreover, the TGI in the test with SK-MEL-28 melanoma is 30.2 µM; in the test on SN12C renal, 21.1 µM; in the test with SNB-19 CNS it was 28.1 µM.
With `CCN(CC)CCn1[nH]c2c3ccc(=O)cc3sc3c(NCCN)ccc1c32`, the TGI with A498 renal worked out at 3.32 µM; in the test with CAKI-1 renal it was 11.5 µM; in the test with HOP-62 NSCLC it was 2.3 µM; in the test with MALME-3M melanoma, 2.73 µM; in the test with OVCAR-4 ovarian, 2.28 µM; in the test with SK-MEL-2 melanoma, 2.69 µM. For the same compound, the values for the TGI with SK-MEL-28 melanoma, in the test on SN12C renal and with SNB-19 CNS were 3.28 µM, 8.15 µM and 4.29 µM, respectively.
Regarding `CC(C)(C)OC(=O)c1cccnc1/C=N/O`, the TGI in the test on CAKI-1 renal, in the test with HOP-62 NSCLC, in the test with MALME-3M melanoma, with OVCAR-4 ovarian, in the test with SK-MEL-2 melanoma and in the test with SK-MEL-28 melanoma was above 100 µM each time. In addition, the TGI in the test with SN12C renal and in the test on SNB-19 CNS was above 100 µM throughout.
Take `NCCCCCCNCc1cccc2ccccc12`: the TGI was above 100 µM with CAKI-1 renal; above 100 µM with HOP-62 NSCLC; 35.6 µM with MALME-3M melanoma; above 100 µM in the test on OVCAR-4 ovarian; above 100 µM in the test on SK-MEL-2 melanoma; above 100 µM in the test on SK-MEL-28 melanoma. Moreover, the TGI in the test on SN12C renal and in the test on SNB-19 CNS was above 100 µM each time.
